Values joined by “and” are separate entries in the source; they are usually repeats but may differ in a detail not shown here. Equal values may be shown once. Inconclusive results and toxic doses are left out.
Tested on: B6C3F1 mice, B16 melanoma ip, median survival T/C
Assay: NCI In Vivo Anticancer Drug Screen. Data for tumor model B16 Melanoma (intraperitoneal) in B6C3F1 mice
Details: endpoint: median survival time, higher = longer survival
Method in brief: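 Tumor-bearing mice received test compound; a separate group got vehicle only. Survival was then compared, with results reported as treated over control.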

[1] = dose: 0.12 mg/kg/injection, schedule: Q01DX009 (ip), vehicle: saline
[2] = dose: 0.25 mg/kg/injection, schedule: Q01DX009 (ip), vehicle: saline
[3] = dose: 0.25 mg/kg/injection, schedule: Q01DX009 (ip), vehicle: water
[4] = dose: 0.5 mg/kg/injection, schedule: Q01DX009 (ip), vehicle: saline
[5] = dose: 0.5 mg/kg/injection, schedule: Q01DX009 (ip), vehicle: water
[6] = dose: 1.0 mg/kg/injection, schedule: Q01DX009 (ip), vehicle: water
[7] = dose: 2.0 mg/kg/injection, schedule: Q01DX009 (ip), vehicle: water
[8] = dose: 50.0 mg/kg/injection, schedule: Q01DX009 (ip), vehicle: saline with Tween-80

In the case of `O=C1c2ccccc2CCC1Br` (stereo not given), the T/C (dose: 1.5 mg/kg/injection, schedule: Q01DX009 (ip), vehicle: DMSO) is reported as 87 % of control, the T/C (dose: 3.0 mg/kg/injection, schedule: Q01DX009 (ip), vehicle: DMSO) is reported as 86 % of control and 87 % of control and the T/C (dose: 6.0 mg/kg/injection, schedule: Q01DX009 (ip), vehicle: DMSO) is reported as 91 % of control. For the same compound, the T/C (dose: 12.0 mg/kg/injection, schedule: Q01DX009 (ip), vehicle: DMSO) was 94 % of control.
In the case of `CO[C@@]12[C@H](COC(N)=O)C3=C(C(=O)C(C)=C(N)C3=O)N1C[C@@H]1N[C@@H]12`, the T/C (dose: 0.12 mg/kg/injection, schedule: Q01DX009 (ip), vehicle: Klucel (hydroxypropylcellulose) (HPC)) is reported as 109 % of control, the T/C (dose: 0.12 mg/kg/injection, schedule: Q01DX009 (ip), vehicle: saline with Tween-80) is reported as 119 % of control and the T/C [1] is reported as 120 % of control and 100 % of control. The T/C (dose: 0.13 mg/kg/injection, schedule: Q01DX009 (ip), vehicle: water) was 109 % of control and 110 % of control, the T/C (dose: 0.25 mg/kg/injection, schedule: Q01DX005 (ip), vehicle: saline) was 124 % of control and the T/C (dose: 0.25 mg/kg/injection, schedule: Q01DX005 (iv), vehicle: saline) was 107 % of control. The T/C (dose: 0.25 mg/kg/injection, schedule: Q01DX009 (ip), vehicle: Klucel (hydroxypropylcellulose) (HPC)) was 116 % of control, the T/C [2] was 115 % of control and the T/C [3] was 124 % of control. For the same compound, the T/C (dose: 0.5 mg/kg/injection, schedule: Q01DX001 (ip), vehicle: clinical formulation) was 122 % of control, the T/C (dose: 0.5 mg/kg/injection, schedule: Q01DX005 (ip), vehicle: saline) was 166 % of control and the T/C (dose: 0.5 mg/kg/injection, schedule: Q01DX005 (iv), vehicle: saline) was 86 % of control. For the same compound, the T/C (dose: 0.5 mg/kg/injection, schedule: Q01DX009 (ip), vehicle: Klucel (hydroxypropylcellulose) (HPC)) was 116 % of control, the T/C (dose: 0.5 mg/kg/injection, schedule: Q01DX009 (ip), vehicle: saline with Tween-80) was 166 % of control and the T/C [4] was 161 % of control. For the same compound, the T/C [5] was 150 % of control, the T/C (dose: 0.75 mg/kg/injection, schedule: Q04DX003 (ip), vehicle: clinical formulation) was 121 % of control and the T/C (dose: 1.0 mg/kg/injection, schedule: Q01DX001 (ip), vehicle: saline) was 165 % of control. The T/C (dose: 1.0 mg/kg/injection, schedule: Q01DX001 (iv), vehicle: saline) was 93 % of control, the T/C (dose: 1.0 mg/kg/injection, schedule: Q01DX005 (ip), vehicle: saline) was 168 % of control and the T/C (dose: 1.0 mg/kg/injection, schedule: Q01DX009 (ip), vehicle: Klucel (hydroxypropylcellulose) (HPC)) was 155 % of control. The T/C (dose: 1.0 mg/kg/injection, schedule: Q01DX009 (ip), vehicle: saline with Tween-80) was 191 % of control, the T/C (dose: 1.0 mg/kg/injection, schedule: Q01DX009 (ip), vehicle: saline) was 185 % of control and the T/C [6] was 156 % of control and 173 % of control. For the same compound, the T/C (dose: 1.0 mg/kg/injection, schedule: Q04DX003 (ip), vehicle: clinical formulation) was 156 % of control and 160 % of control, the T/C (dose: 1.25 mg/kg/injection, schedule: Q01DX009 (oral), vehicle: water) was 91 % of control and the T/C (dose: 2.0 mg/kg/injection, schedule: Q01DX001 (ip), vehicle: clinical formulation) was 159 % of control. For the same compound, the T/C (dose: 2.0 mg/kg/injection, schedule: Q01DX001 (iv), vehicle: saline) was 118 % of control, the T/C (dose: 2.0 mg/kg/injection, schedule: Q01DX005 (ip), vehicle: saline) was 179 % of control and the T/C [7] was 190 % of control. For the same compound, the T/C (dose: 2.0 mg/kg/injection, schedule: Q04DX003 (ip), vehicle: clinical formulation) was 190 % of control and 195 % of control, the T/C (dose: 2.5 mg/kg/injection, schedule: Q01DX009 (oral), vehicle: water) was 102 % of control and the T/C (dose: 3.0 mg/kg/injection, schedule: Q04DX003 (ip), vehicle: clinical formulation) was 203 % of control. For the same compound, the T/C (dose: 4.0 mg/kg/injection, schedule: Q01DX001 (ip), vehicle: clinical formulation) was 193 % of control, the T/C (dose: 4.0 mg/kg/injection, schedule: Q01DX001 (ip), vehicle: saline) was 176 % of control and the T/C (dose: 4.0 mg/kg/injection, schedule: Q01DX001 (iv), vehicle: saline) was 115 % of control. For the same compound, the T/C (dose: 4.0 mg/kg/injection, schedule: Q04DX003 (ip), vehicle: clinical formulation) was 239 % of control, the T/C (dose: 8.0 mg/kg/injection, schedule: Q01DX001 (ip), vehicle: clinical formulation) was 164 % of control and the T/C (dose: 8.0 mg/kg/injection, schedule: Q01DX001 (ip), vehicle: saline) was 216 % of control.
For `O=C(O)C(CSC(c1ccccc1)(c1ccccc1)c1ccccc1)N=Cc1cccs1` (stereo not given), the T/C (dose: 12.5 mg/kg/injection, schedule: Q01DX009 (ip), vehicle: suspension in saline) was 112 % of control and the T/C (dose: 25.0 mg/kg/injection, schedule: Q01DX009 (ip), vehicle: suspension in saline) was 118 % of control.
With `[Cl][Hg][Cl]` the T/C (dose: 0.05 mg/kg/injection, schedule: Q01DX009 (ip), vehicle: saline) was 105 % of control, the T/C (dose: 0.06 mg/kg/injection, schedule: Q01DX009 (ip), vehicle: saline) was 96 % of control and the T/C (dose: 0.1 mg/kg/injection, schedule: Q01DX009 (ip), vehicle: saline) was 97 % of control. For the same compound, the T/C [1] was 104 % of control, the T/C (dose: 0.2 mg/kg/injection, schedule: Q01DX009 (ip), vehicle: saline) was 100 % of control and the T/C [2] was 104 % of control. The T/C (dose: 0.4 mg/kg/injection, schedule: Q01DX009 (ip), vehicle: saline) was 102 % of control, the T/C [4] was 86 % of control and the T/C (dose: 0.8 mg/kg/injection, schedule: Q01DX009 (ip), vehicle: saline) was 86 % of control.
In the case of `COc1cccc2c1C(=O)c1c(O)c3c(c(O)c1C2=O)C[C@@](O)(C(C)=O)C[C@@H]3OC1CC(N)C(O)C(C)O1` (stereo not given in full), the T/C (dose: 0.12 mg/kg/injection, schedule: Q01DX009 (ip), vehicle: water) is reported as 151 % of control, the T/C [3] is reported as 171 % of control and the T/C [5] is reported as 174 % of control and 186 % of control. The T/C [6] was 154 % of control and 285 % of control, the T/C (dose: 1.5 mg/kg/injection, schedule: Q01DX001 (ip), vehicle: water) was 187 % of control and the T/C [7] was 242 % of control and 96 % of control. For the same compound, the T/C (dose: 3.0 mg/kg/injection, schedule: Q01DX001 (ip), vehicle: water) was 218 % of control and the T/C (dose: 6.0 mg/kg/injection, schedule: Q01DX001 (ip), vehicle: water) was 122 % of control.
For `CN(C)CCNc1ccc(CO)c2sc3ccc(O)cc3c(=O)c12`, the T/C (dose: 18.0 mg/kg/injection, schedule: Q01DX009 (ip), vehicle: saline with Tween-80) was 327 % of control, the T/C (dose: 30.0 mg/kg/injection, schedule: Q01DX009 (ip), vehicle: saline with Tween-80) was 218 % of control and the T/C [8] was 295 % of control. The T/C (dose: 83.33 mg/kg/injection, schedule: Q01DX009 (ip), vehicle: saline with Tween-80) was 327 % of control.
For `O=NNc1cnccn1`, the T/C (dose: 3.12 mg/kg/injection, schedule: Q01DX009 (ip), vehicle: water) was 120 % of control and 103 % of control and 106 % of control, the T/C (dose: 6.25 mg/kg/injection, schedule: Q01DX009 (ip), vehicle: water) was 109 % of control and 110 % of control and 114 % of control and the T/C (dose: 12.5 mg/kg/injection, schedule: Q01DX009 (ip), vehicle: water) was 113 % of control. For the same compound, the T/C (dose: 25.0 mg/kg/injection, schedule: Q01DX009 (ip), vehicle: water) was 155 % of control and 158 % of control and 169 % of control and the T/C (dose: 50.0 mg/kg/injection, schedule: Q01DX009 (ip), vehicle: water) was 96 % of control.
`O=C(O)CNc1ccc(O)cc1` was tested, and the T/C (dose: 25.0 mg/kg/injection, schedule: Q01DX009 (ip), vehicle: saline) was 104 % of control, the T/C (dose: 50.0 mg/kg/injection, schedule: Q01DX009 (ip), vehicle: saline) was 105 % of control and the T/C (dose: 75.0 mg/kg/injection, schedule: Q01DX009 (ip), vehicle: saline) was 105 % of control. The T/C (dose: 100.0 mg/kg/injection, schedule: Q01DX009 (ip), vehicle: saline) was 112 % of control and 121 % of control, the T/C (dose: 150.0 mg/kg/injection, schedule: Q01DX009 (ip), vehicle: saline) was 105 % of control and the T/C (dose: 200.0 mg/kg/injection, schedule: Q01DX009 (ip), vehicle: saline) was 100 % of control and 101 % of control.
In the case of `NC(=O)CC(N)C(=O)O` (stereo not given), the T/C [8] is reported as 108 % of control, the T/C (dose: 100.0 mg/kg/injection, schedule: Q01DX009 (ip), vehicle: saline with Tween-80) is reported as 100 % of control and the T/C (dose: 200.0 mg/kg/injection, schedule: Q01DX009 (ip), vehicle: saline with Tween-80) is reported as 100 % of control. The T/C (dose: 400.0 mg/kg/injection, schedule: Q01DX009 (ip), vehicle: saline with Tween-80) was 105 % of control, the T/C (dose: 800.0 mg/kg/injection, schedule: Q01DX009 (ip), vehicle: saline with Tween-80) was 120 % of control and the T/C (dose: 1600.0 mg/kg/injection, schedule: Q01DX009 (ip), vehicle: saline with Tween-80) was 118 % of control.
With `CC(C)(O)/C=C/C(=O)[C@](C)(O)[C@H]1[C@H](O)C[C@@]2(C)[C@@H]3CC=C4[C@@H](C[C@H](O)C(=O)C4(C)C)[C@]3(C)C(=O)C[C@]12C` the T/C (dose: 0.5 mg/kg/injection, schedule: Q01DX009 (ip), vehicle: saline + Tween-80 + alcohol) was 102 % of control and the T/C (dose: 1.0 mg/kg/injection, schedule: Q01DX009 (ip), vehicle: saline + Tween-80 + alcohol) was 98 % of control.
